# System: cells expressing RIPK1-FRB/RIPK3-FKBP
# Experiment: Heterodimerizer-induced RIPK1/RIPK3 necrosis, annexin V-FITC
# Type: cell-based
# Settings: data not shown
# Method: FIG. 6 provides a schematic for inducible RIPK-necrosis. Two systems for inducible RIPK-necrosis. […] Cell death in cells expressing RIPK1-FRB/RIPK3-FKBP and treated with heterodimerizer, and death was detected with annexin V-FITC. Death was inhibited by necrostatin-1 (not shown) (FIG. 6B). Cells expressing RIPK3ΔC-FKBPx2, treated with homodimerizer (1-100 nM); death was detected at 3 hrs by PI uptake. No effect of zVAD-fmk or necrostatin was observed (FIG. 6B).
# An inducible dimer system has been employed to trigger homodimerization of caspase-8 in cells (27). The data provided herein support methods to induce RIPK-dependent necrosis by related approaches (FIG. 6A). Heterodimerization of RIPK1 and RIPK3 results in necrosis (see FIG. 6B) which is enhanced by inhibition of caspases and blocked by inhibition of RIPK1 (with nec1, data not shown). In contrast, truncated RIPK3 (lacking the RHIM domain for interaction with RIPK1) can only be oligomerized when FKBP domains (e.g., for example, two domains) that allow multiple monomers to be brought together by the dimerizing agent. Addition of the homodimerization agent to cells expressing this construct induces extremely rapid necrosis that that depends on the kinase activity of RIPK3, but is not affected by inhibition of caspases or nec1 treatment (FIG. 6C).
compound,measurement,setting,value
"CN1C(=O)C(Cc2c[nH]c3ccccc23)NC1=S (centres unmarked) [necrostatin-1, Necrostatin-1]",effect on heterodimerizer-induced death,,inhibited
same,effect on heterodimerizer-induced death,listed as nec1,blocked
